# Data taken from patent US20230382925A1, “MODULATORS OF CYSTIC FIBROSIS TRANSMEMBRANE CONDUCTANCE REGULATOR” (VERTEX PHARMACEUTICALS INCORPORATED, priority 2020, published 2023).
# Like-named read-outs stand apart in the source and are kept apart here.
# Target: CFTR (Homo sapiens, UniProt P13569)
# Test: Membrane Potential Dye, Enteroid Assay B
# Assay type: cell-based
# Procedure: Base medium (ADF+++) consisted of Advanced […], 2 mM Glutamax, 10 mM HEPES, 1 μg/mL penicillin/streptomycin.
# Intestinal enteroid maintenance medium (IEMMN) consisted of ADF+++, 1× B27 supplement, 1× N2 supplement, 1.25 mM N-acetyl cysteine, 10 mM Nicotinamide, 50 ng/mL hEGF, 10 nM Gastrin, 1 μg/mL hR-spondin-1, 100 ng/mL hNoggin, TGF-b type 1 inhibitor A-83-01, 100 μg/mL Primocin, 10 μM P38 MAPK inhibitor SB202190.
# Bath 1 Buffer consisted of 1 mM MgCl2, 160 mM NaCl, 4.5 mM KCl, 10 mM HEPES, 10 mM Glucose, 2 mM CaCl2).
# Chloride Free Buffer consisted of 1 mM Magnesium Gluconate, 2 mM Calcium Gluconate, 4.5 mM Potassium Gluconate, 160 mM Sodium Gluconate, 10 mM HEPES, 10 mM Glucose.
# Bath 1 Dye Solution consisted of Bath 1 Buffer, 0.04% Pluronic F127, 20 μM Methyl Oxonol, 30 μM CaCCinh-A01, 30 μM Chicago Sky Blue.
# Chloride Free Dye Solution consisted of Chloride Free Buffer, 0.04% Pluronic F127, 20 μM Methyl Oxonol, 30 μM CaCCinh-A01, 30 μM Chicago Sky Blue.
# Chloride Free Dye Stimulation Solution consisted of Chloride Free Dye Solution, 10 μM forskolin, 100 μM IBMX, and 300 nM Compound III.
# Human intestinal epithelial enteroid cells were obtained from the Hubrecht Institute for Developmental Biology and Stem Cell Research, Utrecht, The Netherlands and expanded in T-Flasks as previously described (Dekkers J F, Wiegerinck C L, de Jonge H R, Bronsveld I, Janssens H M, de Winter-de Groot K M, Brandsma A M, de Jong N W M, Bijvelds M J C, Scholte B J, Nieuwenhuis E E S, van den Brink S, Clevers H, van der Ent C K, Middendorp S and M Beekman J M. A functional CFTR assay using primary cystic fibrosis intestinal organoids. Nat Med. 2013 July; 19(7):939-45.).
# 3. Enteroid Cell Harvesting and Seeding
# Cells were recovered in cell recovery solution, collected by centrifugation at 650 rpm for 5 min at 4° C., resuspended in TrypLE and incubated for 5 min at 37° C. Cells were then collected by centrifugation at 650 rpm for 5 min at 4° C. and resuspended in IEMM containing 10 μM ROCK inhibitor (RI). The cell suspension was passed through a 40 μm cell strainer and resuspended at 1×10^6 cells/mL in IEMM containing 10 μM RI. Cells were seeded at 5000 cells/well into multi-well plates and incubated for overnight at 37° C., 95% humidity and 5% CO2 prior to assay.
# 5. Membrane Potential Dye, Enteroid Assay B
# Enteroid cells were incubated with test compound in IEMM for 18-24 hours at 37° C., 95% humidity and 5% CO2. […] Briefly, cells were washed 5 times in Bath 1 Buffer. Bath 1 Dye Solution was added and the cells were incubated for 25 min at room temperature. Following dye incubation, cells were washed 3 times in Chloride Free Dye Solution. Chloride transport was initiated by addition of Chloride Free Dye Stimulation Solution and the fluorescence signal was read for 15 min. […] Chloride transport was then expressed as a percentage of the chloride transport following treatment with 1 μM (14S)-8-[3-(2-{Dispiro[2.0.2.1]heptan-7-yl}ethoxy)-1H-pyrazol-1-yl]-12,12-dimethyl-2λ^6-thia-3,9,11,18,23-pentaazatetracyclo[17.3.1.111,14.05,10]tetracosa-1(22),5,7,9,19(23),20-hexaene-2,2,4-trione, 3 μM (R)-1-(2,2-difluorobenzo[d][1,3]dioxol-5-yl)-N-(1-(2,3-dihydroxypropyl)-6-fluoro-2-(1-hydroxy-2-methylpropan-2-yl)-1H-indol-5-yl)cyclopropanecarboxamide and 300 nM acute N-[2,4-bis(1,1-dimethylethyl)-5-hydroxyphenyl]-1,4-dihydro-4-oxoquinoline-3-carboxamide triple combination control (% Activity).
# [1] = Table 10, read-out: Ent. B EC50
# CFTR, sequence (P13569 with tags, fused parts or gaps DEL508-508): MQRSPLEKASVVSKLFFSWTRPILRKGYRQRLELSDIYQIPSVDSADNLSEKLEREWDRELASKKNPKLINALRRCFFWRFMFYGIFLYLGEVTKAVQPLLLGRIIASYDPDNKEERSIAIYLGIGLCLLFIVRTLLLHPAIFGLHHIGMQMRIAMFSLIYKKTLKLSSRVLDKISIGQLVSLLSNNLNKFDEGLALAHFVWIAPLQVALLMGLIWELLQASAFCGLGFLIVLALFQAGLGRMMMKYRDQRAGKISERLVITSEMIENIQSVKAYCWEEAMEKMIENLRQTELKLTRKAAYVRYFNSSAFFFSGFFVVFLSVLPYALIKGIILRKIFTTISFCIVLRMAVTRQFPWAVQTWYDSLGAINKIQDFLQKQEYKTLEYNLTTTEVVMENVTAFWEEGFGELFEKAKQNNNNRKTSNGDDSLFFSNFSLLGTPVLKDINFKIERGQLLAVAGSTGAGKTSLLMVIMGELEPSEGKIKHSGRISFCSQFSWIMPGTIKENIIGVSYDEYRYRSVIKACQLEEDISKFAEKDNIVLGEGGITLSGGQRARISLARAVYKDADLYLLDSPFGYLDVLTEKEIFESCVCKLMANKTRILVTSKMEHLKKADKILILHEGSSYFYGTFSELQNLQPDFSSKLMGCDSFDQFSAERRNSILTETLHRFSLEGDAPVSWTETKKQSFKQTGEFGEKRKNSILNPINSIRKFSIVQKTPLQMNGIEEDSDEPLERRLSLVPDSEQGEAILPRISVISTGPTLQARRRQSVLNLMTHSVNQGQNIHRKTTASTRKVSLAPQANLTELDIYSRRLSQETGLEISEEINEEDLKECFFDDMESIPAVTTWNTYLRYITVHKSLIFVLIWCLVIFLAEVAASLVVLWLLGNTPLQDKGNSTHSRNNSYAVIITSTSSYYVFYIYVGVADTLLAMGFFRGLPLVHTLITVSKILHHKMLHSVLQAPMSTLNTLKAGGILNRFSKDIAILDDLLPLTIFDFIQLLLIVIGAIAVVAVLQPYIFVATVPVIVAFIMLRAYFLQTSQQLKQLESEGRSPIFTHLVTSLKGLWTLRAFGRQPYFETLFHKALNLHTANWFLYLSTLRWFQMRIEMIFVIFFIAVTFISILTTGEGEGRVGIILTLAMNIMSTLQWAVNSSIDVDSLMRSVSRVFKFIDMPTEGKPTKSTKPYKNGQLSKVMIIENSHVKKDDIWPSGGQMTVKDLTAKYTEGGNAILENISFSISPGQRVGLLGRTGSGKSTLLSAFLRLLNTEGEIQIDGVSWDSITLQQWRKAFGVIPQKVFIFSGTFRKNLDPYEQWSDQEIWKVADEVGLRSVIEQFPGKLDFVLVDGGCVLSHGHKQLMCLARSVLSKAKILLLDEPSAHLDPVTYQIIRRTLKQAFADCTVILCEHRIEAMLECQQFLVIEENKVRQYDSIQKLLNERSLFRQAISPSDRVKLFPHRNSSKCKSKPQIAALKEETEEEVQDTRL
Structure (SMILES),Ent. B Max Activity (%) (Table 10),EC50 [1] [µM],Ent. B Max Activity (%) (Table 9),"EC50 (Table 9, read-out: Ent. B EC50) [µM]",further results
Cc1cccc(C)c1-c1cc2nc(n1)NS(=O)(=O)c1cccc(n1)C(=O)N(C1CC3(CC(C(=O)N(C)C)C3)C1)[C@H](CC(C)(C)C)CO2 (some centres unmarked) [Compound 415],+++ (+++ is >60%),< 1,–,–,–
"Cc1cccc(C)c1-c1cc2nc(n1)NS(=O)(=O)c1cccc(n1)C(=O)N(C1CC3(C1)CC(C(C)(C)O)C3)[C@H](CC(C)(C)C)CO2 (single isomer, unassigned) [Compound 162]",+++ (+++ is >60%),< 1,–,–,–
COCCN(C)C(=O)C1CC(N2C(=O)c3cccc(c3)S(=O)(=O)Nc3nc(cc(-c4c(C)cccc4C)n3)OC[C@H]2CC(C)C)C1 (some centres unmarked) [Compound 306],–,–,–,–,Ent. B Max Activity (%): +++ (+++ is >60%); EC50 (read-out: Ent. B EC50): < 1 µM
"CC(=O)NCC[C@H]1C[C@@H](N2C(=O)c3cccc(c3)S(=O)(=O)Nc3nc(cc(-c4c(C)cccc4C)n3)OC[C@H]2CC(C)(C)C)C1 (single isomer, unassigned) [Compound 154]",+++ (+++ is >60%),< 1,–,–,–
COC(=O)N1CCC2(CC1)CC(N1C(=O)c3cccc(c3)S(=O)(=O)Nc3nc(cc(-c4c(C)cccc4C)n3)OC[C@H]1CC1(C(F)(F)F)CC1)C2 [Compound 261],–,–,+++ (+++ is >60%),< 1,–
Cc1cccc(C)c1-c1cc2nc(n1)NS(=O)(=O)c1cccc(c1)C(=O)N([C@H]1C[C@H](OC(F)(F)C(F)(F)F)C1)[C@H](CC(C)C)CO2 [Compound 211],+ (+ is <300%),–,–,–,–
Cc1cccc(C)c1-c1cc2nc(n1)NS(=O)(=O)c1cccc(c1)C(=O)N([C@H]1C[C@@]3(C[C@H](N(C)C(=O)OC(C)C)C3)C1)[C@H](CC1(C(F)(F)F)CC1)CO2 (some centres unmarked) [Compound 272],–,–,+++ (+++ is >60%),< 1,–
"COC1CN([C@H]2C[C@@H](N3C(=O)c4cccc(c4)S(=O)(=O)Nc4nc(cc(-c5c(C)cccc5C)n4)OC[C@H]3CC(C)C)C2)C1 [Compound 65, (11R)-6-(2,6-dimethylphenyl)-11-isobutyl-12-[3-(3-methoxyazetidin-1-yl)cyclobutyl]-2,2-dioxo-9-oxa-2λ^6-thia-3,5,12,19-tetrazatricyclo[12.3.1.14,8]nonadeca-1(18),4(19),5,7,14,16-hexaen-13-one]",–,–,+++ (+++ is >60%),< 1,–
COC(=O)N(C)[C@H]1C[C@@]2(C1)C[C@H](N1C(=O)c3cccc(c3)S(=O)(=O)Nc3nc(cc(-c4c(C)cccc4C)n3)OC[C@H]1CC1(C(F)(F)F)CC1)C2 (stereo in doubt) [Compound 259],–,–,+++ (+++ is >60%),< 1,–
Cc1cccc(C)c1-c1cc2nc(n1)NS(=O)(=O)c1cccc(c1)C(=O)N(C1CC3(CC(N)C3)C1)[C@H](CC(C)C)CO2 (stereo in doubt) [Compound 291],–,–,+++ (+++ is >60%),< 1,–
"Cc1cccc(C)c1-c1cc2nc(n1)NS(=O)(=O)c1cccc(c1)C(=O)N(C1CC(C)(OC(F)(F)F)C1)[C@H](CC(C)C)CO2 (stereo partly drawn) [Compound 49, (11R)-6-(2,6-dimethylphenyl)-11-isobutyl-12-[3-methyl-3-(trifluoromethoxy)cyclobutyl]-2,2-dioxo-9-oxa-2λ^6-thia-3,5,12,19-tetrazatricyclo[12.3.1.14,8]nonadeca-1(18),4(19),5,7,14,16-hexaen-13-one]",++ (++ is 30-60%),< 1,–,–,–
"Cc1cccc(C)c1-c1cc2nc(n1)NS(=O)(=O)c1cccc(c1)C(=O)N(C1CC3(C1)CC(C(C)(C)O)C3)[C@H](CC(C)(C)C)CO2 (single isomer, unassigned) [Compound 116]",+++ (+++ is >60%),< 1,–,–,–
[H][C@]1(N2C(=O)c3cccc(c3)S(=O)(=O)Nc3nc(cc(-c4c(C)cccc4C)n3)OC[C@H]2CC2(C(F)(F)F)CC2)C[C@@]2(C[C@H](N(C)C)C2)C1 (some centres unmarked) [Compound 298],–,–,–,–,Ent. B Max Activity (%): +++ (+++ is >60%); EC50 (read-out: Ent. B EC50): < 1 µM
Cc1cccc(C)c1-c1cc2nc(n1)NS(=O)(=O)c1cccc(c1)C(=O)N(C1CCC3(CC1)CC3)C[C@@H](C)O2 [Compound 442],–,–,–,–,Ent. B Max Activity (%): ++ (++ is 30-60%); EC50 (read-out: Ent. B EC50): < 1 µM
Cc1cccc(C)c1-c1cc2nc(n1)NS(=O)(=O)c1cccc(c1)C(=O)N(C1CC(NC(=O)C(C)C)C1)[C@H](CC(C)(C)C)CO2 (stereo in doubt) [Compound 445],–,–,+++ (+++ is >60%),< 1,–
Cc1cccc(C)c1-c1cc2nc(n1)NS(=O)(=O)c1cccc(c1)C(=O)N(C1CC3(CCN(C4CCC4)CC3)C1)[C@H](CC(C)C)CO2 [Compound 280],–,–,+++ (+++ is >60%),< 1,–
Cc1cccc(C)c1-c1cc2nc(n1)NS(=O)(=O)c1cccc(c1)C(=O)N(C1CCN(C)CC1)CC(CC(C)C)CO2 (centres unmarked) [Compound 441],–,–,+++ (+++ is >60%),< 1,–
CNC(=O)C1CC2(C1)CC(N1C(=O)c3cccc(c3)S(=O)(=O)Nc3nc(cc(-c4c(C)cccc4C)n3)OC[C@H]1CC(C)(C)C)C2 (some centres unmarked) [Compound 235],+++ (+++ is >60%),< 1,–,–,–
Cc1cccc(C)c1-c1cc2nc(n1)NS(=O)(=O)c1cccc(c1)C(=O)N(C1CCCCC1)[C@H](CC(C)(C)C)CO2 [Compound 208],+ (+ is <300%),–,–,–,–
COCCN1CCC(n2cc(N3C(=O)c4cccc(c4)S(=O)(=O)Nc4nc(cc(-c5c(C)cccc5C)n4)OC[C@H]3CC(C)(C)C)cn2)CC1 [Compound 224],+ (+ is <300%),–,–,–,–
Cc1cccc(C)c1-c1cc2nc(n1)NS(=O)(=O)c1cccc(n1)C(=O)N([C@H]1C[C@@H](C(C)(C)O)C1)[C@H](CC(C)(C)C)CO2 [Compound 410],+++ (+++ is >60%),< 1,–,–,–
COC1CC(N2C(=O)c3cccc(c3)S(=O)(=O)Nc3nc(cc(-c4c(C)cccc4C)n3)OC[C@H]2CC2(C(F)(F)F)CC2)C1 (stereo in doubt) [Compound 465],–,–,–,–,Ent. B Max Activity (%): +++ (+++ is >60%); EC50 (read-out: Ent. B EC50): < 1 µM
"Cc1cccc(C)c1-c1cc2nc(n1)NS(=O)(=O)c1cccc(c1)C(=O)N(C1CC3(CC(N)C3)C1)[C@H](CC(C)(C)C)CO2 (single isomer, unassigned) [Compound 118]",–,–,–,–,Ent. B Max Activity (%): +++ (+++ is >60%); EC50 (read-out: Ent. B EC50): < 1 µM
[H][C@]1(N2C(=O)c3cccc(c3)S(=O)(=O)Nc3nc(cc(-c4c(C)cccc4C)n3)OC[C@H]2CC(C)C)C[C@@]2(C[C@H](N(C)CCOC)C2)C1 (some centres unmarked) [Compound 285],–,–,+++ (+++ is >60%),< 1,–
"[H][C@]1(N2C(=O)c3cccc(c3)S(=O)(=O)Nc3nc(cc(-c4c(C)cccc4C)n3)OC[C@H]2CCC(C)C)C[C@@]2(C[C@H](C(C)(C)O)C2)C1 (single isomer, unassigned) [Compound 5]",+++ (+++ is >60%),< 1,–,–,–
Cc1cccc(C)c1-c1cc2nc(n1)NS(=O)(=O)c1cccc(c1)C(=O)N([C@H]1C[C@]3(C[C@H](NC(=O)C(C)C)C3)C1)[C@H](CC1(C(F)(F)F)CC1)CO2 (some centres unmarked) [Compound 246],+++ (+++ is >60%),< 1,–,–,–
COC(=O)N[C@H]1C[C@@H](N2C(=O)c3cccc(c3)S(=O)(=O)Nc3nc(cc(-c4c(C)cccc4C)n3)OC[C@H]2CC(C)C)C1 [Compound 368],–,–,+++ (+++ is >60%),< 1,–
CCC(O)(CC)[C@H]1CC2(C[C@H](N3C(=O)c4cccc(c4)S(=O)(=O)Nc4nc(cc(-c5c(C)cccc5C)n4)OC[C@H]3CC(C)(C)C)C2)C1 (some centres unmarked) [Compound 409],+++ (+++ is >60%),< 1,–,–,–
